Reference: PubChem BioAssay AID1745844 (Carcinogenic Potency Database (CPDB), 2022)
The source made the active and inactive calls. No rule for the calls is given here.

Test system: rodent lifetime carcinogenesis bioassay, tumor incidence TD50
Test: chronic cancer bioassays in animals – CPDB, compiled studies (AID 1745844)

CC(C)(C)c1cc(C(C)(C)C)c(O)c(C(C)(C)C)c1
carcinogen call (rat, strain Wistar, females, in feed, site: liver, lesion: one or several types, types not named, dosed 52 weeks, study length 52 weeks): negative (inactive)
carcinogen call (rat, strain Wistar, females, in feed, site: liver, lesion: one or several types, types not named, dosed 78 weeks, study length 78 weeks): negative (inactive)
carcinogen call (rat, strain Wistar, females, in feed, site: liver, lesion: one or several types, types not named, dosed 104 weeks, study length 104 weeks): negative (inactive)
carcinogen call (rat, strain Wistar, males, in feed, site: liver, lesion: one or several types, types not named, dosed 52 weeks, study length 52 weeks): negative (inactive)
carcinogen call (rat, strain Wistar, males, in feed, site: liver, lesion: one or several types, types not named, dosed 78 weeks, study length 78 weeks): negative (inactive)
carcinogen call (rat, strain Wistar, males, in feed, site: liver, lesion: one or several types, types not named, dosed 104 weeks, study length 104 weeks): negative (inactive)

Nc1nc(/C=C/c2ccc([N+](=O)[O-])o2)no1
TD50 (mouse, strain Charles River CD1, females, in feed, site: forestomach, lesion: squamous-cell carcinoma, dosed 31 weeks, study length 75 weeks): 105 mg/kg/day
TD50 (mouse, strain Charles River CD1, females, in feed, site: forestomach, lesion: squamous-cell papilloma, dosed 31 weeks, study length 75 weeks): 1150 mg/kg/day
TD50 (mouse, strain Charles River CD1, females, in feed, site: lung, lesion: adenoma, dosed 31 weeks, study length 75 weeks): 1010 mg/kg/day
carcinogen call (mouse, strain Charles River CD1, females, in feed, site: reticuloendothelium, lesion: several types, types named in the paper, dosed 31 weeks, study length 75 weeks): positive
TD50 (mouse, strain Charles River CD1, females, in feed, site: thymus gland, lesion: lymphoma, dosed 31 weeks, study length 75 weeks): 262 mg/kg/day
TD50 (mouse, strain Charles River CD1, males, in feed, site: any site (literature study), lesion: several types, types named in the paper, dosed 38 weeks, study length 75 weeks): 29.2 mg/kg/day
TD50 (mouse, strain Charles River CD1, males, in feed, site: forestomach, lesion: squamous-cell carcinoma, dosed 38 weeks, study length 75 weeks): 130 mg/kg/day
TD50 (mouse, strain Charles River CD1, males, in feed, site: forestomach, lesion: squamous-cell papilloma, dosed 38 weeks, study length 75 weeks): 514 mg/kg/day
TD50 (mouse, strain Charles River CD1, males, in feed, site: reticuloendothelium, lesion: several types, types named in the paper, dosed 38 weeks, study length 75 weeks): 492 mg/kg/day
TD50 (mouse, strain Charles River CD1, males, in feed, site: thymus gland, lesion: lymphoma, dosed 38 weeks, study length 75 weeks): 121 mg/kg/day

CCNNC(=O)[C@@H]1[C@H](c2cc(OC)c(OC)c(OC)c2)c2cc3c(cc2[C@H](O)[C@H]1CO)OCO3
carcinogen call (rat, strain BR 46, males, i.v., site: any site (literature study), lesion: several types, types named in the paper, dosed 52 weeks, study length 104 weeks): negative (inactive)

CSCCC(N)C(=O)O (stereo unspecified)
TD50 (mouse, strain C3H/HeN, males, in feed, site: liver, lesion: hepatocellular adenoma, dosed 52 weeks, study length 52 weeks): 4160 mg/kg/day
TD50 (mouse, strain C3H/HeN, males, in feed, site: liver, lesion: hepatocellular carcinoma, dosed 52 weeks, study length 52 weeks): 4470 mg/kg/day
TD50 (mouse, strain C3H/HeN, males, in feed, site: liver, lesion: several types, types named in the paper, dosed 52 weeks, study length 52 weeks): 2000 mg/kg/day
carcinogen call (rat, strain Fischer 344, males, in feed, site: liver, lesion: neoplastic nodule, dosed 72 weeks, study length 103 weeks): negative (inactive)

OCc1ccccc1
TD50 (mouse, strain B6C3F1, females, by gavage, site: any site (literature study), lesion: several types, types named in the paper, dosed 103 weeks, study length 104 weeks): 57500 mg/kg/day (inactive)
TD50 (mouse, strain B6C3F1, females, by gavage, site: liver, lesion: hepatocellular adenoma + hepatocellular carcinoma + neoplastic nodule, dosed 103 weeks, study length 104 weeks): 1040 mg/kg/day
TD50 (mouse, strain B6C3F1, males, by gavage, site: adrenal gland, lesion: cortical adenoma, dosed 103 weeks, study length 104 weeks): 1620 mg/kg/day (inactive)
TD50 (mouse, strain B6C3F1, males, by gavage, site: liver, lesion: hepatocellular adenoma + hepatocellular carcinoma + neoplastic nodule, dosed 103 weeks, study length 104 weeks): 588 mg/kg/day
TD50 (mouse, strain B6C3F1, males, by gavage, site: lung, lesion: alveolar/bronchiolar adenoma + alveolar/bronchiolar carcinoma, dosed 103 weeks, study length 104 weeks): 546 mg/kg/day
TD50 (rat, strain Fischer 344, females, by gavage, site: any site (literature study), lesion: several types, types named in the paper, dosed 103 weeks, study length 104 weeks): 885 mg/kg/day (inactive)
TD50 (rat, strain Fischer 344, males, by gavage, site: mammary gland, lesion: adenoma, NOS + fibroadenoma, dosed 103 weeks, study length 104 weeks): 1140 mg/kg/day (inactive)
TD50 (rat, strain Fischer 344, males, by gavage, site: mammary gland, lesion: fibroadenoma, dosed 103 weeks, study length 104 weeks): 1380 mg/kg/day

Brc1c(Br)c(Br)c(Oc2c(Br)c(Br)c(Br)c(Br)c2Br)c(Br)c1Br
carcinogen call (mouse, strain B6C3F1, females, in feed, site: any site (literature study), lesion: several types, types named in the paper, dosed 103 weeks, study length 103 weeks): negative (inactive)
TD50 (mouse, strain B6C3F1, females, in feed, site: liver, lesion: hepatocellular adenoma + hepatocellular carcinoma + neoplastic nodule, dosed 103 weeks, study length 103 weeks): 33400 mg/kg/day
TD50 (mouse, strain B6C3F1, males, in feed, site: any site (literature study), lesion: several types, types named in the paper, dosed 103 weeks, study length 103 weeks): 9060 mg/kg/day
TD50 (mouse, strain B6C3F1, males, in feed, site: liver, lesion: hepatocellular adenoma + hepatocellular carcinoma + neoplastic nodule, dosed 103 weeks, study length 103 weeks): 11200 mg/kg/day
TD50 (mouse, strain B6C3F1, males, in feed, site: liver, lesion: hepatocellular adenoma + hepatocellular carcinoma, dosed 103 weeks, study length 103 weeks): 11200 mg/kg/day
TD50 (mouse, strain B6C3F1, males, in feed, site: thyroid gland, lesion: follicular-cell adenoma + follicular-cell carcinoma, dosed 103 weeks, study length 103 weeks): 20500 mg/kg/day
TD50 (rat, strain Fischer 344, females, in feed, site: any site (literature study), lesion: several types, types named in the paper, dosed 103 weeks, study length 104 weeks): 4380 mg/kg/day
TD50 (rat, strain Fischer 344, females, in feed, site: liver, lesion: hepatocellular adenoma + hepatocellular carcinoma + neoplastic nodule, dosed 103 weeks, study length 104 weeks): 6580 mg/kg/day
TD50 (rat, strain Fischer 344, females, in feed, site: liver, lesion: hepatocellular carcinoma + neoplastic nodule, dosed 103 weeks, study length 104 weeks): 6580 mg/kg/day
TD50 (rat, strain Fischer 344, females, in feed, site: liver, lesion: neoplastic nodule, dosed 103 weeks, study length 104 weeks): 7740 mg/kg/day
TD50 (rat, strain Fischer 344, males, in feed, site: any site (literature study), lesion: several types, types named in the paper, dosed 103 weeks, study length 104 weeks): 2230 mg/kg/day
TD50 (rat, strain Fischer 344, males, in feed, site: liver, lesion: hepatocellular adenoma + hepatocellular carcinoma + neoplastic nodule, dosed 103 weeks, study length 104 weeks): 2220 mg/kg/day
TD50 (rat, strain Fischer 344, males, in feed, site: liver, lesion: hepatocellular carcinoma + neoplastic nodule, dosed 103 weeks, study length 104 weeks): 2220 mg/kg/day
TD50 (rat, strain Fischer 344, males, in feed, site: liver, lesion: neoplastic nodule, dosed 103 weeks, study length 104 weeks): 2130 mg/kg/day
TD50 (rat, strain Fischer 344, males, in feed, site: pancreas, lesion: acinar-cell adenoma, dosed 103 weeks, study length 104 weeks): 13900 mg/kg/day
TD50 (rat, strain Sprague-Dawley Spartan, females, in feed, site: any site (literature study), lesion: several types, types named in the paper, dosed 105 weeks, study length 105 weeks): 0.987 mg/kg/day (inactive)
carcinogen call (rat, strain Sprague-Dawley Spartan, females, in feed, site: liver, lesion: hepatocellular tumor, dosed 105 weeks, study length 105 weeks): negative (inactive)
carcinogen call (rat, strain Sprague-Dawley Spartan, males, in feed, site: any site (literature study), lesion: several types, types named in the paper, dosed 100 weeks, study length 100 weeks): negative (inactive)
carcinogen call (rat, strain Sprague-Dawley Spartan, males, in feed, site: liver, lesion: hepatocellular tumor, dosed 100 weeks, study length 100 weeks): negative (inactive)

C#C[C@]1(C(C)=O)CC[C@H]2[C@@H]3CCC4=C[C@@H](C(C)=O)CC[C@@H]4[C@H]3CC[C@@]21C (tested in a mixture with another compound)
TD50 (mouse, strain (C3H x RIII)F1 (MTV+), females, in feed, site: mammary tissue, wider than the gland, lesion: one or several types, types not named, dosed 104 weeks, study length 104 weeks): 0.858 mg/kg/day
TD50 (mouse, strain (C3H x RIII)F1 (MTV+), males, in feed, site: mammary tissue, wider than the gland, lesion: one or several types, types not named, dosed 104 weeks, study length 104 weeks): 0.3 mg/kg/day

CN1CCC[C@H]1c1cccnc1
carcinogen call (mouse, strain Swiss albino, females, in drinking water, site: liver, lesion: several types, types named in the paper, dosed 121 weeks, study length 123 weeks): negative (inactive)
TD50 (mouse, strain Swiss albino, females, in drinking water, site: lung, lesion: one or several types, types not named, dosed 121 weeks, study length 123 weeks): 11100 mg/kg/day (inactive)
carcinogen call (mouse, strain Swiss albino, males, in drinking water, site: liver, lesion: several types, types named in the paper, dosed 114 weeks, study length 120 weeks): negative (inactive)
carcinogen call (mouse, strain Swiss albino, males, in drinking water, site: lung, lesion: one or several types, types not named, dosed 114 weeks, study length 120 weeks): negative (inactive)
carcinogen call (rat, strain Sprague-Dawley, females, i.p., site: any site (literature study), lesion: malignant tumor, dosed 104 weeks, study length 104 weeks): negative (inactive)
TD50 (rat, strain Sprague-Dawley, males, i.p., site: any site (literature study), lesion: malignant tumor, dosed 104 weeks, study length 104 weeks): 6.38 mg/kg/day (inactive)
